Test results reported in patent US11252963B2, “Pesticidally active pyrazole derivatives” (SYNGENTA PARTICIPATIONS AG, priority 2017, dated 2022).
Where two headings read alike, the source gives them in different places.

What was measured:
Format in all cases: in vivo
[1] = system: Diabrotica balteata (Corn root worm); experiment: Diabrotica balteata (Corn root worm) mortality test on sprayed maize sprouts; details: 96 h
Protocol: Diabrotica balteata (Corn root worm):
Maize sprouts placed onto an agar layer in 24-well microtiter plates were treated with aqueous test solutions prepared from 10′000 ppm DMSO stock solutions by spraying. After drying, the plates were infested with L2 larvae (6 to 10 per well). The samples were assessed for mortality 4 days after infestation.

[2] = system: Euschistus heros (Neotropical Brown Stink Bug); experiment: Euschistus heros (Neotropical Brown Stink Bug): feeding/contact activity; details: 120 h
Protocol: Euschistus heros (Neotropical Brown Stink Bug): Feeding/Contact Activity
Soybean leaves on agar in 24-well microtiter plates were sprayed with aqueous test solutions prepared from 10,000 ppm DMSO stock solutions. After drying the leaves were infested with N2 nymphs. The samples were assessed for mortality 5 days after infestation.

[3] = system: Myzus persicae (Green Peach Aphid); experiment: Myzus persicae (Green Peach Aphid): feeding/contact activity; details: foliar, 144 h
Protocol: Myzus persicae (Green Peach Aphid): Feeding/Contact Activity
Sunflower leaf discs were placed onto agar in a 24-well microtiter plate and sprayed with aqueous test solutions prepared from 10,000 ppm DMSO stock solutions. After drying, the leaf discs were infested with an aphid population of mixed ages. The samples were assessed for mortality 6 days after infestation.

[4] = system: Plutella xylostella (Diamond Back Moth); experiment: Plutella xylostella (Diamond Back Moth): feeding/contact activity; details: 120 h
Protocol: Plutella xylostella (Diamond Back Moth): Feeding/Contact Activity
24-well microtiter plates with artificial diet were treated with aqueous test solutions prepared from 10′000 ppm DMSO stock solutions by pipetting. After drying, the plates were infested with L2 larvae (10 to 15 per well). The samples were assessed for mortality 5 days after infestation.

[5] = system: Spodoptera littoralis (Egyptian Cotton Leaf Worm); experiment: Spodoptera littoralis (Egyptian Cotton Leaf Worm): feeding/contact activity; details: foliar, 72 h
Protocol: Spodoptera littoralis (Egyptian Cotton Leaf Worm): Feeding/Contact Activity
Cotton leaf discs were placed onto agar in 24-well microtiter plates and sprayed with aqueous test solutions prepared from 10′000 ppm DMSO stock solutions. After drying the leaf discs were infested with five L1 larvae. The samples were assessed for mortality 3 days after infestation.

[6] = system: Tetranychus urticae (Two-Spotted Spider Mite); experiment: Tetranychus urticae (Two-Spotted Spider Mite): feeding/contact activity; details: foliar, 192 h, read-out: mortality on mixed population (mobile stages)
Protocol: Tetranychus urticae (Two-Spotted Spider Mite): Feeding/Contact Activity
Bean leaf discs on agar in 24-well microtiter plates were sprayed with aqueous test solutions prepared from 10′000 ppm DMSO stock solutions. After drying the leaf discs were infested with a mite population of mixed ages. The samples were assessed for mortality on mixed population (mobile stages) 8 days after infestation.

[7] = system: Thrips tabaci (Onion Thrips); experiment: Thrips tabaci (Onion Thrips): feeding/contact activity; details: foliar, 144 h
Protocol: Thrips tabaci (Onion Thrips): Feeding/Contact Activity
Sunflower leaf discs were placed on agar in 24-well microtiter plates and sprayed with aqueous test solutions prepared from 10′000 ppm DMSO stock solutions. After drying the leaf discs were infested with a thrips population of mixed ages. The samples were assessed for mortality 6 days after infestation.

[8] = application rate 200 ppm, maize sprouts sprayed, L2 larvae, assessed 4 days after infestation, read-out: mortality
[9] = application rate 200 ppm, soybean leaves sprayed, N2 nymphs, assessed 5 days after infestation, read-out: mortality
[10] = application rate 200 ppm, sunflower leaf discs sprayed, aphid population of mixed ages, assessed 6 days after infestation, read-out: mortality
[11] = application rate 200 ppm, artificial diet treated by pipetting, L2 larvae, assessed 5 days after infestation, read-out: mortality
[12] = application rate 200 ppm, cotton leaf discs sprayed, L1 larvae, assessed 3 days after infestation, read-out: mortality
[13] = application rate 200 ppm, bean leaf discs sprayed, mite population of mixed ages, assessed 8 days after infestation
[14] = application rate 200 ppm, sunflower leaf discs sprayed, thrips population of mixed ages, assessed 6 days after infestation, read-out: mortality

Measured: mortality at 200 ppm

Cn1nc(C(F)(F)C(F)(F)F)c(OC(F)F)c1-n1cc(-c2cnc(Cl)c(C(=O)N(CC#N)C3(C#N)CC3)c2)cn1 [Compound 15, 2-chloro-N-(1-cyanocyclopropyl)-N-(cyanomethyl)-5-[1-[4-(difluoromethoxy)-2-methyl-5-(1,1,2,2,2-pentafluoroethyl)pyrazol-3-yl]pyrazol-4-yl]pyridine-3-carboxamide]
≥ 80%: [1]; [8] | [2]; [9] | [3]; [10] | [4]; [11] | [5]; [12] | [6]; [13] | [7]; [14]

C#CCN(C(=O)c1cc(-c2cnn(-c3c(OC(F)F)c(C(F)(F)C(F)(F)F)nn3C)c2)cnc1Cl)C1(C#N)CC1 [Compound 21, 2-chloro-N-(1-cyanocyclopropyl)-5-[1-[4-(difluoromethoxy)-2-methyl-5-(1,1,2,2,2-pentafluoroethyl)pyrazol-3-yl]pyrazol-4-yl]-N-prop-2-ynyl-pyridine-3-carboxamide]
≥ 80%: [1]; [8] | [2]; [9] | [3]; [10] | [4]; [11] | [5]; [12] | [6]; [13] | [7]; [14]

CCOC(=O)N(C(=O)c1cc(-c2cnn(-c3c(OC(F)F)c(C(F)(F)C(F)(F)F)nn3C)c2)ccc1Cl)C1(C#N)CC1 [Compound 6, ethyl N-[2-chloro-5-[1-[4-(difluoromethoxy)-2-methyl-5-(1,1,2,2,2-pentafluoroethyl)pyrazol-3-yl]pyrazol-4-yl]benzoyl]-N-(1-cyanocyclopropyl)carbamate]
≥ 80%: [1] | [2]; in Glycine max | [3] | [4] | [5] | [6] | [7]

CCOC(=O)N(C(=O)c1cc(-c2cnn(-c3c(OC(F)F)c(C(F)(F)C(F)(F)F)nn3C)c2)cnc1Cl)C1(C#N)CC1 [Compound 16, ethyl N-[2-chloro-5-[1-[4-(difluoromethoxy)-2-methyl-5-(1,1,2,2,2-pentafluoroethyl)pyrazol-3-yl]pyrazol-4-yl]pyridine-3-carbonyl]-N-(1-cyanocyclopropyl)carbamate]
≥ 80%: [1] | [2]; in Glycine max | [3] | [4] | [5] | [6] | [7]

CC(=O)N(C(=O)c1cc(-c2cnn(-c3c(OC(F)F)c(C(F)(F)C(F)(F)F)nn3C)c2)cnc1Cl)C1(C#N)CC1 [Compound 22, N-acetyl-2-chloro-N-(1-cyanocyclopropyl)-5-[1-[4-(difluoromethoxy)-2-methyl-5-(1,1,2,2,2-pentafluoroethyl)pyrazol-3-yl]pyrazol-4-yl]pyridine-3-carboxamide]
≥ 80%: [1]; [8] | [2]; [9] | [3]; [10] | [4]; [11] | [5]; [12] | [6]; [13] | [7]; [14]
